Measured values from paper PMC9269118, “Chemical Constituents of the Flowers of Pueraria lobata and Their Cytotoxic Properties” (Plants, 2022).

Legend:
[1] = system: immortalized human ovarian surface epithelial cell line IOSE80PC; assay: MTT cell viability assay, IOSE80PC; format: cell-based; details: 48 h incubation, IOSE80PC cells
Text: (§1) To identify anti-tumor constituents in Pueraria Flos, we examined the effects of the 25 isolates on the cell viability of the human ovarian cancer A2780 cell line using the MTT assay. […] To further evaluate the effect of the compounds on the cell viability of non-malignant ovarian epithelial cells, we explored the cytotoxicity of the eight compounds (8, 10, 11, 12, 14, 16, 17, and 21) against the immortalized human ovarian surface epithelial cell line IOSE80PC.
(§2) Human ovarian endometrioid adenocarcinoma cell line A2780 and immortalized ovarian surface epithelial cell line IOSE80PC were provided by Dr. Ie-Ming Shih (Johns Hopkins School of Medicine, Baltimore, MD, USA) and Dr. N. Auersperg (University of British Columbia, Vancouver, British Columbia, Canada), respectively. The cells were cultured in Roswell Park Memorial Institute (RPMI) 1640 supplemented with 5% fetal bovine serum (FBS), penicillin (100 U/mL), and streptomycin sulfate (100 μg/mL) in a 5% CO2 and 95% air humidified atmosphere at 37 °C. RPMI 1640, FBS, streptomycin sulfate, and penicillin were procured from Life Technologies Inc. (Grand Island, NY, USA). The cells were seeded at a density of 1.0 × 10^5 cells/mL in a 96-well plate containing 50 μL of RPMI medium in each well and incubated for 24 h. Various concentrations of compounds dissolved in dimethyl sulfoxide (DMSO) were mixed with RPMI 1640 medium and added into cells in each well. […] Following 48 h incubation, 50 μL of MTT (Molecular Probes Inc., Eugene, OR, USA) solution was added into each well to achieve a final concentration of 0.5 mg/mL and then incubated for an additional 4 h. The medium was discarded, and the formazan blue that formed in the cells was dissolved in 50 μL of DMSO. The optical density was measured at 540 nm by microplate spectrophotometer (SpectraMax; Molecular Devices, Sunnyvale, CA, USA). […] IC50 is defined as the concentration that reduces cell number by 50% compared to control cultures.

[2] = system: breast cancer cell line MCF-7; set-up: method as in PMID 27784319, PMID 15787436; details: cited from earlier work
[3] = system: human ovarian cancer cell line A2780; assay: MTT cell viability assay, A2780; format: cell-based; details: 48 h incubation, A2780 cells
Text: as §1, §2

Lu1 = system: Lu1; set-up: method as in PMID 19026551; details: cited from earlier work
[4] = system: colon adenocarcinoma (SW-480); set-up: method as in doi:10.1016/0031-9422(93)85369-3, PMID 24018191; details: cited from earlier work
(HEK293) = system: (HEK293); set-up: method as in doi:10.1016/0031-9422(93)85369-3, PMID 24018191; details: cited from earlier work
[5] = system: murine lymphocytic leukemia (P-388); set-up: method as in doi:10.1016/0031-9422(93)85369-3, PMID 24018191; details: cited from earlier work
LNCaP = system: LNCaP; set-up: method as in PMID 19026551; details: cited from earlier work
MCF-7 = system: MCF-7; set-up: method as in PMID 19026551; details: cited from earlier work
VEGF expression = system: VEGF expression; set-up: method as in PMID 19005980; details: cited from earlier work
[6] = system: ovarian cancer cell line OVCAR3; set-up: method as in PMID 19005980; details: cited from earlier work
[7] = system: ovarian cancer cell line A2780; set-up: method as in PMID 18974065, PMID 19447105; details: by suppressing the expression of Id1 and focal adhesion kinase; cited from earlier work

IC50 ([3]; Homo sapiens, A2780, 48 h) | SMILES | IC50 ([1]; Homo sapiens, IOSE-80PC) | further results
> 100 µM | COc1c(OC2OC(COC3OCC(O)C(O)C3O)C(O)C(O)C2O)cc2occ(-c3ccc(O)cc3)c(=O)c2c1O [Compound 15, tectorigenin-7-O-β-D-xylopyranosyl-(1→6)-O-β-D-glucopyronoside] | – | –
> 100 µM | C[C@@H]1O[C@@H](OC[C@H]2O[C@@H](OCc3ccccc3)[C@H](O)[C@@H](O)[C@@H]2O)[C@H](O)[C@H](O)[C@H]1O [Compound 22, hydrageifolin I] | – | –
> 100 µM | C[C@@H]1O[C@@H](OC[C@H]2O[C@@H](Oc3c(-c4ccc(O)cc4)oc4cc(O)cc(O)c4c3=O)[C@H](O)[C@@H](O)[C@@H]2O)[C@H](O)[C@H](O)[C@H]1O [Compound 9, nicotiflorin] | – | –
< 100 µM | COc1c(O)cc2occ(-c3ccc(O)c(O)c3)c(=O)c2c1O [Compound 12, irilin D] | > 100 µM | anticancer activity in MCF-7 [2]: anticancer activity; IC50 [3]: 57.5 ± 3.08 µM
19.4 ± 2.92 µM | O=c1c(O)c(-c2ccc(O)c(O)c2)oc2cc(O)cc(O)c12 [Quercetin, quercetin, reference compound] | > 100 µM | –
> 100 µM | COc1c(O[C@@H]2O[C@H](CO)[C@@H](O)[C@H](O)[C@H]2O)cc2occ(-c3ccc(O)cc3)c(=O)c2c1O [Compound 13, tectoridin] | – | –
< 100 µM | COc1ccc(-c2coc3cc(OC4OC(CO)C(O)C(O)C4O)c(OC)c(O)c3c2=O)cc1 [Compound 14, irisolidone-7-O-β-D-glucopyranoside] | > 100 µM | IC50 [3]: 71.2 ± 11.3 µM
> 100 µM | O=C1C[C@@](O)(c2ccc(O)cc2)Oc2cc(O)cc(O[C@@H]3O[C@H](CO)[C@@H](O)[C@H](O)[C@H]3O)c21 [Compound 6, 2-hydroxy-naringenin-5-O-β-D-glucopyranoside] | – | –

Second part, the molecule before the results:

SMILES | IC50 ([3]; Homo sapiens, A2780, 48 h) | IC50 ([1]; Homo sapiens, IOSE-80PC) | further results
COc1ccc(-c2coc3cc(O)c(OC)cc3c2=O)cc1 [Compound 17, afromosin] | – | > 100 µM | anticancer activity in MCF-7 [2]: anticancer activity
COc1cc([C@@H]2Oc3ccc(-c4cc(=O)c5c(O)cc(O)cc5o4)cc3O[C@H]2CO)ccc1O [Compound 21, (-)-hydnocarpin] | – | 65.8 ± 1.6 µM | cytotoxicity against Lu1 (Lu1): no cytotoxicity; antiproliferative activity against SW-480 [4]: considerable antiproliferative activities; antiproliferative activity against HEK293 ((HEK293)): considerable antiproliferative activities; antiproliferative activity against P-388 [5]: considerable antiproliferative activities; cytotoxicity against LNCaP (LNCaP): no cytotoxicity; cytotoxicity against MCF-7 (MCF-7): no cytotoxicity
O=c1c(-c2ccc(O)cc2)coc2cc(O)cc(O)c12 [Compound 10, genistein] | – | > 100 µM | VEGF expression in OVCAR3 (VEGF expression): downregulates VEGF expression; cell proliferation in OVCAR3 [6]: inhibits cell proliferation
N.N.[Cl][Pt][Cl] [Cisplatin, cisplatin, reference compound] | – | – | IC50 [1]: 12.8 ± 0.55 µM; IC50 [3]: 10.7 ± 0.81 µM
COc1cc2c(=O)c(-c3ccc(O)cc3)coc2cc1O [Compound 16, glycitein] | – | > 100 µM | –
O=c1cc(-c2ccc(O)cc2)oc2cc(O)cc(O)c12 [Compound 8, apigenin] | – | > 100 µM | proliferation and migration of A2780 [7]: inhibits the proliferation and migration
COc1c(O)cc2occ(-c3ccc(O)cc3)c(=O)c2c1O [Compound 11, tectorigenin] | – | > 100 µM | –
